The results in this text go back to article PMC10427391, “Identification of Cytochrome P450 2E1 as a Novel Target in Glioma and Development of Its Inhibitor as an Anti‐Tumor Agent” (Advanced Science, 2023).

Data set [1] deals with other CYP enzymes (CYP1A2, CYP2B6, CYP2C8, CYP2C9, CYP2C19, CYP2D6, CYP3A4/5). Nature of the data set: Selectivity, microsomal incubation, remaining CYPs. It is filed as biochemical. Particulars: probe substrates. Here is the method: A 100 µL microsomal incubation system^[ [44] ^] contained probe drugs for each CYP with different series of concentrations, Q11, phosphate buffer, EDTA, magnesium chloride, and substrates (phenacetin for CYP1A2, coumarin for CYP2A6, bupropion for CYP2B6, paclitaxel for CYP2C8, tolbutamide for CYP2C9, omeprazole for CYP2C19, dextromethorphan for CYP2D6, chlorzoxazone for CYP2E1, midazolam for CYP3A4/5). HPLC‐UV and HPLC‐FLD were used to measure the number of metabolites.

A short description of data set [2]: Bioavailability and pharmacokinetics of Q11 in rats. It is filed as in vivo, SD rats. Here is the method: Eight healthy male SD rats were randomly divided into 2 groups (4 rats in each group) using a double‐period self‐cross control principle. The first group was given Q11 (30 mg kg^−1, i.g), and the second group was given Q11 (30 mg kg^−1, i.v.). One week later, a second round of experiments was conducted in which Q11 (30 mg kg^−1, i.v.) was given to the first group of rats and Q11 (30 mg kg^−1, i.g) was given to the second group. Collection of orbital blood was carried out at 0, 2, 7, 15, 30 min and 1, 2, 4, 6, 9, 12, 24 h after Q11 administration.
Thirty healthy male SD rats were randomly divided into three equal groups. Q11 was administrated at 6, 30, or 150 mg kg^−1 (i.g) to these three groups. Collection of orbital blood was carried out at 0, 2, 7, 15, 30 min and 1, 2, 4, 6, 9, 12, 24, 36 h after Q11 administration.

In data set [3] the target is CYP2E1 (Homo sapiens, UniProt P05181). As to the kind of experiment: Surface plasmon resonance binding of Q11 to CYP2E1 (Biacore 8k). Also noted: purchased Cloud-Clone Corp. Wuhan. As to the method:
Surface Plasma Resonance (SPR) experiments^[ [43] ^] were carried out using the Biacore system (Biacore 8k, Cytiva). Recombinant CYP2E1 protein was purified by Cloud‐Clone Corp. Wuhan. Running buffer contained PBS (2 mM KH2PO4, 10 mM Na2HPO4, 137 mM NaCl, 2.7 mM KCl) with 0.005% Tween‐20, pH 7.4. CYP2E1 protein was diluted to 25 µg mL^−1 in immobilization buffer and bound to a CM5 chip at about 2000RU. Immobilization buffer contained 10 mM sodium acetate, pH 4.0. Samples of compound Q11 were diluted in running buffer with 125, 62.5, 31.25, 15.625, 7.8, 3.9, 1.95 µM and injected at 30 µL min^−1 for 60 s contact time followed by dissociation for 120 s. The data was fitted with Biacore Insight Evaluation software (Version 2.0).
On the technique in general: SPR reads the build-up and loss of mass on a sensor chip optically.

Data set [4] has as its system U251 cells. As to the kind of experiment: Direct effect on glioma cells (CCK-8), U251. Conditions: concentrations below 100 µM.
Data set [5] has as its system microglia/macrophage of tumor microenvironment. As to the kind of experiment: Immunohistochemistry of CD206 and CD86 on tumor tissues. Particulars: Q11 group vs model.
Procedure: Paraffin‐embedded specimens were cut into 4‐µm sections. After deparaffinization with xylene and rehydration, antigen retrieval was performed. For immunohistochemistry (IHC), endogenous peroxidase activity was blocked with 3% H2O2 in methanol. Primary antibodies against CYP2E1 (1:200, Abcam, ab28146), Iba‐1 (1:150, Servicebio, China), CD206 (1:150, Servicebio), and CD86 (1:150, Servicebio) were used and results were evaluated blindly by two pathologists and quantified by IPP 6.0 soft.
Data set [6] relates to GL261 cells. As to the kind of experiment: Migration (wound assay) of GL261 cells in co-culture with microglia/macrophages. Conditions: 24 h.
Data set [7] has as its system inflammatory factors in TME. As to the kind of experiment: Inflammatory factors in the tumor microenvironment of C6 orthotopic xenograft model. Particulars: C6 model rats.
Data set [8] in a line: In vivo biodistribution / BBB permeability of Q11 (plasma, cortex, hippocampus, HPLC).
Data set [9] has as its system U251 cells. Nature of the data set: Proliferation of glioma cells in indirect co-culture with microglia/macrophages, U251. Particulars: co-cultured with primary microglia, RAW 264.7 or THP-1 macrophages.
Data set [10] has as its system GL261 cells. Nature of the data set: Proliferation of glioma cells in indirect co-culture with microglia/macrophages, GL261. Particulars: co-cultured with primary microglia, RAW 264.7 or THP-1 macrophages.
In data set [11] the test system is U251 cells. As to the kind of experiment: U251 glioma cells with conditioned medium of CYP2E1-overexpressing HMC-3 cells (proliferation, migration, apoptosis).

CYP2E1, sequence (P05181 whole entry, species assumed): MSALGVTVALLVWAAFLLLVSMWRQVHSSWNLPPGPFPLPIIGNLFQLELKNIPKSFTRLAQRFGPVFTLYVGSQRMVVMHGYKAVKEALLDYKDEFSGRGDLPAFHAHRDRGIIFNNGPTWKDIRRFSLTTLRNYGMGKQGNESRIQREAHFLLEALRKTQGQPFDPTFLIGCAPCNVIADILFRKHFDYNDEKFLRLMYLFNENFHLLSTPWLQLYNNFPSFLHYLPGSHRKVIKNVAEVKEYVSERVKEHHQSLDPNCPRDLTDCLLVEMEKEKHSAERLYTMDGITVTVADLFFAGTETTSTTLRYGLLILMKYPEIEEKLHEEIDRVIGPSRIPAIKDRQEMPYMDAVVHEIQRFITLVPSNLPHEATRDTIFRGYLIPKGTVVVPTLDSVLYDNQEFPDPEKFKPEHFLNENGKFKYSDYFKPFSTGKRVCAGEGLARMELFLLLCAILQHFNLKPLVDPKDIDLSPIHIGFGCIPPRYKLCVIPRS

By bioavailability is commonly meant dose-corrected exposure relative to a reference, in per cent. The Kd is the free concentration of one partner at which half of the binding sites on the other are occupied at equilibrium, for simple one-to-one binding. Read a high Kd as a looser complex. Turning to `CC(=O)c1scnc1C` [Compound Q11, 1‐(4‐methyl‐5‐thialzolyl) ethanone], the “inhibition of other CYP enzymes” value in data set [1] was “no inhibition”. Besides, the Tmax in [2] (male, SD, rat, blood, 30 mg kg^−1, oral administration, read-out: mean T max) is 0.45 h. Further, the half-life in data set [2] (male, SD, rat, blood, 30 mg kg^−1, oral administration, read-out: mean t 1/2 (converted)) is 3.05 h. In data set [2] (male, SD, rat, blood, oral vs intravenous, 30 mg kg^−1), this compound came in with a bioavailability of 94.7%. In data set [2] (oral, dose 6 to 150 mg kg^−1), the “dose dependence of pharmacokinetic parameters” value is given as “proportional changes”. Moreover, binding in data set [3] was put at a Kd of 7 µM. Moreover, the “direct killing of U251 cells” value in [4] is “did not directly kill”. Further, in [5], the “CD86 (M1 marker) positive cells” value is given as “increased significantly” and the “number of CD206 (M2 marker) positive cells” value was “significantly reduced”. Also, the “migration of GL261 cells” value in data set [6] is given as “restrained migration”. In data set [7], the “M1-like inflammatory factors (IL-1β, TNF-α)” value is “increased” and the “M2-like inflammatory factors (IL-4, TGF-β, IL-10, VEGFB, IL-6)” value is “significantly decreased”. Also, the “plasma concentration at peak” value in data set [8] (SD rats, 30 mg kg^−1 intragastric, about 1 h) was found to be 14.75 ng/mL. Also, the “blood brain barrier (BBB) permeability” value in data set [8] (SD rats, 30 mg kg^−1 intragastric, cortex and hippocampus parallel to plasma) is on record as “capable of penetrating BBB”. The Tmax in data set [8] (female, SD, rat, in vivo, po, 30 mg/kg) is around 1 h. The same compound registered a concentration at 4 h in data set [8] (female, SD, rat, plasma, oral, 30 mg kg^−1) of 9.21 ng/mL. For the same compound, the “proliferation of U251 cells in co-culture” value in [9] was “significantly inhibited”. Further, the “proliferation of GL261 cells in co-culture” value in data set [10] is “significantly inhibited”. Moreover, the “tumor-promoting effects of upregulating CYP2E1 in HMC-3 (proliferation, migration, apoptosis of U251)” value in data set [11] was “reversed”.
